Reference: PubChem BioAssay AID1361 (SRMLSC, 2008)
The source made the active and inactive calls. How the calls were made is not given here.

Experiment: blockers of mitochondrial fusion, WT vs mutant – cell-based, chemical genetic, wild-type and mutant, confirmation (AID 1361)
Conditions: Cell-based mitochondrial fusion phenotype, imaging
[1] = mutant cells, measured here: mutant cell line IC50

| Compound | IC50 (WT cells) | IC50 [1] [µM] |
| --- | --- | --- |
| CC(C)(C)c1ccc(OCC(=O)N2CCCCCC2)c(Br)c1 | > 25 µM (inactive) | > 25 |
| CCCCCCn1c(N)c(C(=O)NCCN2CCOCC2)c2nc3ccccc3nc21 | > 25 µM (inactive) | > 25 |
| N#Cc1sc2nc(N3CCCCC3)c3c(c2c1N)CCCC3 | 20.2 µM | > 25 |
| O=C(/C=C/Nc1cccc(C(F)(F)F)c1)C(F)(F)F | > 25 µM (inactive) | > 25 |
| O=C(N/N=C/c1c[nH]c2ccccc12)C1CC1(c1ccccc1)c1ccccc1 (stereo not drawn) | > 25 µM (inactive) | > 25 |
| CCOc1ccc(NS(=O)(=O)c2cnc(Cl)c(Cl)c2)cc1 | 20.5 µM | > 25 |
| CCS(=O)(=O)Nc1cccc(-c2cc(-c3ccccc3)c3cc(C)ccc3n2)c1 | 6.46 µM | > 25 |
| COCC(C)NC(=O)c1cc(-c2cccc(OC)c2)on1 (stereo not drawn) | > 25 µM (inactive) | > 25 |
| O=C(CCn1nnc2ccccc21)Nc1nnc(Cc2ccccc2)s1 | > 25 µM (inactive) | > 25 |
| Cc1ccc(-n2cc(C(=O)c3ccc(F)cc3)nn2)cc1Cl | > 25 µM (inactive) | > 25 |
| CNC(=S)NCCC(c1ccccc1)c1ccccc1 | > 25 µM (inactive) | > 25 |
| CCOC(=O)N1CCN(S(=O)(=O)c2ccc(C)cc2)C1c1ccc(OC)cc1 (stereo not drawn) | > 25 µM (inactive) | > 25 |
| CCOC(=O)C1=NN(c2ccccc2)C2=NC(C)=C(C(=O)OC)C(c3ccc(C)cc3)N12 (stereo not drawn) | 8.75 µM | > 25 |
| Cc1[nH][nH]c(=O)c1C(c1c(C)[nH][nH]c1=O)c1cn(Cc2ccc(Cl)c(Cl)c2)c2ccccc12 | 5.68 µM | > 25 |
| COC(=O)CNC(=O)CNC(=O)c1nn(-c2ccc(OC)c(Cl)c2)c(=O)c2ccccc12 | > 25 µM (inactive) | > 25 |
| Cc1ccc(CC2SC(=Nc3ccccc3)N(c3ccccc3)C2=O)cc1 (stereo not drawn) | 18.7 µM | > 25 |
| Cc1ccc(-c2cc(C(F)F)n3ncc(C(=O)Nc4c(C)nn(Cc5ccccc5Cl)c4C)c3n2)cc1 | 16.2 µM | > 25 |
| CC(C)OC(=O)C(C(=O)C(F)(F)F)c1cc(NS(=O)(=O)c2ccc3ccccc3c2)c2ccccc2c1O (stereo not drawn) | 15.1 µM | > 25 |
| Cc1ccc(Nc2nc(N)nc(CSc3nc4ccccc4s3)n2)cc1 | 14.2 µM | 17 |
| Cc1ccc(Nc2ccc(C(=O)O)cc2N)cc1 | > 25 µM (inactive) | > 25 |
| Cc1[nH]c2ccccc2c1/C=N/NC(=O)C1CC1(c1ccccc1)c1ccccc1 (stereo not drawn) | 7.93 µM | > 25 |

| Compound | IC50 (WT cells) | IC50 [1] [µM] |
| --- | --- | --- |
| O=[N+]([O-])c1ccccc1S(=O)(=O)NCCC1=CCCCC1 | > 25 µM (inactive) | > 25 |
| O=C(N/N=C/c1cccc(O)c1)c1ccc(COc2ccccc2Br)cc1 | 18.8 µM | > 25 |
| Nc1c(C(=O)NC2CCCC2)sc2nc(-c3cccs3)ccc12 | > 25 µM (inactive) | > 25 |
| CCOC(=O)C1=C(Nc2ccccc2)CC(C)(O)C(C(=O)OCC)C1c1ccc(Cl)cc1 (stereo not drawn) | 15.6 µM | > 25 |
| COc1cccc(-c2nc(OC(C)C)c3ccccc3n2)c1 | > 25 µM (inactive) | > 25 |
| Cn1c(Oc2ccc3c(c2)OCO3)nc2c1c(=O)n(Cc1ccccc1)c(=O)n2C | > 25 µM (inactive) | > 25 |
| CCOc1ccc(Cc2c(Cl)nc(SC)nc2N(C)C)cc1 | 11.8 µM | > 25 |
| CCC(=O)N1CCN(c2ccccc2NC(=O)COc2cc(C)ccc2C(C)C)CC1 | > 25 µM (inactive) | > 25 |
| CCCC[C@@H]1C[C@H]1[C@@H](NC(=O)c1ccco1)c1ccc(Cl)cc1 | 21.4 µM | > 25 |
| OCCNc1c2c(nc3ccccc13)CCCC2 | > 25 µM (inactive) | > 25 |
| CC(=O)N1N=C(c2ccc(C)cc2)OC1c1ccc(Br)cc1 (stereo not drawn) | 21 µM | > 25 |
| CC(C)(C)C1CCc2c(sc(NC(=O)CSc3ncn[nH]3)c2C#N)C1 (stereo not drawn) | 15.8 µM | > 25 |
| COc1ccc(C(C(=O)Nc2ccc(F)cc2)N(C(=O)Cn2nnc3ccccc32)C2CC2)cc1 (stereo not drawn) | > 25 µM (inactive) | > 25 |
| COc1cccc(N2C(=O)C(c3ccccc3)=C(c3nc4ccccc4s3)C2NC(C)=O)c1 (stereo not drawn) | > 25 µM (inactive) | > 25 |
| COc1nc(SC)nc(Cl)c1Cc1ccc(OC(C)C)cc1 | 24.1 µM | > 25 |
| C/C=C(/C(=C/C)c1ccc(O)cc1)c1ccc(O)cc1 | 21 µM | > 25 |
| CCOC(=O)c1c(NS(=O)(=O)c2ccc(Br)cc2)sc2c1CCC2 | 12.6 µM | > 25 |
| COc1cc(NC(=S)NCCC(c2ccccc2)c2ccccc2)cc(OC)c1 | 4.78 µM | > 25 |
| CS(=O)(=O)N(Cc1cc2ccccc2[nH]c1=O)C1CCCCC1 | > 25 µM (inactive) | > 25 |
| Cc1cc(C)n(-c2nc(C)nc3c2cnn3-c2ccccc2)n1 | > 25 µM (inactive) | > 25 |
| Fc1ccc(N2CCN(c3nc(CN4CCOCC4)nc4scc(-c5ccccc5)c34)CC2)cc1 | 19.6 µM | 24 |

| Compound | IC50 (WT cells) | IC50 [1] [µM] |
| --- | --- | --- |
| CCCCN1C(=O)NC(=O)C2(Cc3c(nc4c(C)cccn4c3=O)N3CCc4ccccc4C32)C1=O (stereo not drawn) | 11.9 µM | > 25 |
| CCC(C)(C)NC(=O)C(c1ccc(C)cc1)N(Cc1cccs1)C(=O)c1ccc2c(c1)OCCO2 (stereo not drawn) | 14.1 µM | > 25 |
| Cc1ccc(CNCC(O)(c2ccccc2)c2ccc(Cl)cc2)cc1 (stereo not drawn) | 18.7 µM | 24.9 |
| COCCNC(=S)N(CCc1c(C)[nH]c2ccc(Cl)cc12)Cc1cccs1 | 8.8 µM | > 25 |
| O=C(O)Cn1c(CC(=O)N2CCCC2)nc2ccccc21 | > 25 µM (inactive) | > 25 |
| Cc1cc(-c2sccc2C)nc(-n2cccc2)n1 | > 25 µM (inactive) | > 25 |
| CCCCNC(=O)C1=C(N)C(C(=O)Nc2ccc(C)c(S(=O)(=O)N3CCCCC3)c2)SC1=Nc1ccc(C)cc1C (stereo not drawn) | > 25 µM (inactive) | > 25 |
| c1ccc(N(c2ccccc2)c2nc(N3CCCC3)nc(-n3ccnc3)n2)cc1 | 15.5 µM | > 25 |
| S=C(Nc1ccc(Oc2ccccc2)cc1)NC1CCCCCC1 | 5.19 µM | 10 |
| CCCCc1nc(NCCN)c(C#N)c2c1CSC(C)(C)C2 | 21.7 µM | > 25 |
| CCOC(=O)C1=C(NC(=S)NC(=O)c2ccccc2)c2ccccc2CC1(C)CC (stereo not drawn) | 7.33 µM | > 25 |
| CCCC[C@@H]1C[C@H]1[C@@H](NC(=O)c1cccs1)c1ccc(Cl)cc1 | 9.76 µM | > 25 |
| O=C(CSc1ccccc1)NCc1cccnc1 | > 25 µM (inactive) | > 25 |
| Cc1nn(CCC(N)=S)c2nc(-c3cccs3)cc(C(F)(F)F)c12 | 18.9 µM | > 25 |
| Oc1ccc2ccccc2c1/C=N/c1nc2c(s1)CCCC2 | > 25 µM (inactive) | > 25 |
| COC(=O)C1CSc2[nH]c(=O)sc2C1c1ccc(OC)c(OC)c1 (stereo not drawn) | > 25 µM (inactive) | > 25 |
| O=C(CN1CCN(S(=O)(=O)c2ccc(Cl)s2)CC1)NCc1ccc(Cl)cc1 | > 25 µM (inactive) | > 25 |
| CCOC(=O)c1c(NC(=O)CN2CCN(C(=O)c3ccco3)CC2)sc2c1CCCC2 | 23.2 µM | > 25 |
| COC(=O)c1ccn(C(=O)c2ccc(Cl)cc2)n1 | > 25 µM (inactive) | > 25 |
| COc1ccc(C(=O)Nc2ccc(Cl)cc2C(=O)NCCN2CCOCC2)cc1 | > 25 µM (inactive) | > 25 |
| O=C(N=Nc1c(O)n(Cc2ccccc2)c2ccccc12)c1cc2ccccc2cc1O | > 25 µM (inactive) | > 25 |

| Compound | IC50 (WT cells) | IC50 [1] [µM] |
| --- | --- | --- |
| C/C=C(\C)CN1CCN(c2cc(C)ccc2C)CC1 | > 25 µM (inactive) | > 25 |
| O=C(CSCc1cccc(Cl)c1)Nc1ccccc1-c1ccccc1 | 12.1 µM | > 25 |
| CCC(C)c1ccc(NC(=S)Nc2ccc(OC)cc2C)cc1 (stereo not drawn) | 18.5 µM | > 25 |
| COc1ccc(/C=N/NC(=O)c2ccn[nH]2)cc1COc1ccc(Cl)cc1Cl | 23 µM | > 25 |
| O=C(CSc1nnnn1-c1ccccc1)NCc1cccs1 | > 25 µM (inactive) | > 25 |
| O=C(CCc1ccccc1)Nc1nnc(-c2ccc3c(c2)CCCC3)o1 | 8.76 µM | > 25 |
| Cc1ccc(OCc2n[nH]c(=S)n2-c2ccccc2)cc1C | 24.4 µM | > 25 |
| O=C(Nc1nnc(C2CC2)s1)c1cc(-c2ccccc2)nn1-c1ccccc1 | 8.41 µM | 17 |
| O=C(CSCC(=O)N1CCCCC1)Nc1nc(-c2ccccc2)c(-c2ccccc2)s1 | 10.7 µM | > 25 |
| O=C(COC(=O)CCCOc1ccc(Cl)cc1Cl)Nc1cccc(Cl)c1 | 24 µM (inactive) | 22.8 |
| O=C(c1cc(-c2ccc(Cl)cc2)n(-c2ccc(Cl)c(Cl)c2)n1)N1CCOCC1 | 16.9 µM | > 25 |
| COc1cc(Nc2nc(-c3ccccc3)c3cc(C)ccc3n2)cc(OC)c1OC | 10.6 µM | > 25 |
| CN1CCC2(CC1)Nc1nc(SCc3ccc(Cl)cc3)nn1C1=C2CN(C)CC1 | > 25 µM (inactive) | > 25 |
| CC/C(=C(/CC)c1ccc(O)cc1)c1ccc(O)cc1 | 23.8 µM | > 25 |
| CC1=C(C#N)C(NC(=O)c2ccc(C)cc2)(C(F)(F)F)C(=O)N1 (stereo not drawn) | > 25 µM (inactive) | > 25 |
| COc1cc(/C=N/n2cnnc2)ccc1OCc1ccccc1 | > 25 µM (inactive) | > 25 |
| Cc1ccc2c(c1)c1c(n2CC(O)Cn2nc(C)c(Br)c2C)CCCC1 (stereo not drawn) | 12.3 µM | 22.8 |
| CC(=O)Nc1ccc(S(=O)(=O)N2CCN(C)CC2)cc1 | > 25 µM (inactive) | > 25 |
| COCCCNC(=O)c1cccc(C(=O)NCCCOC)c1 | > 25 µM (inactive) | > 25 |
| CCC(C)(C)c1ccc(Oc2ccc(N)cc2)cc1 | > 25 µM (inactive) | > 25 |
| NC(=S)N/N=C/c1ccccc1OCCSc1ccc(Cl)cc1 | 6.86 µM | 12 |
